Measurements reported in patent publication US20040121028A1, “Plant based agents as bioavailability / bioefficacy enhancers for drugs and nutraceuticals” (COUNCIL OF SCIENTIFIC AND INDUSTRIAL RESEARCH, priority 2002, published 2004).

Assay: Enhancement in bioavailability of drugs by the Cuminum cyminum active molecule / fraction
[1] = drug given with Active molecule (3′,5-dihydroxy flavone-7-O-β-D-galacturonide-4′-O-β-D-glucopyranoside)
[2] = drug given with Fraction from Cuminum cyminum

Row | Structure (SMILES) | % Enhancement in bioavailability [1] | % Enhancement in bioavailability [2]
1 | N[C@@H]1CON=C1O [Cycloserine] | 85% | 110%
2 | CC[C@H]1OC(=O)[C@H](C)[C@@H](O[C@H]2C[C@@](C)(OC)[C@@H](O)[C@H](C)O2)[C@H](C)[C@@H](O[C@@H]2O[C@H](C)C[C@H](N(C)C)[C@H]2O)[C@](C)(O)C[C@@H](C)CN(C)[C@H](C)[C@@H](O)[C@]1(C)O [Azithromycin] | 82% | 115%
3 | Cn1c(=O)c2[nH]cnc2n(C)c1=O [Theophylline] | 75% | 95%
4 | NNC(=O)c1ccncc1 [Isoniazid] |  | 30%
5 | COc1cccc2c1C(=O)c1c(O)c3c(c(O)c1C2=O)C[C@@](O)(C(=O)CO)C[C@@H]3O[C@H]1C[C@H](N)[C@H](O)[C@H](C)O1 [Doxorubicin] | 78% | 90%
6 | O=c1[nH]cc(F)c(=O)[nH]1 [5-Fluorouracil] | 110% | 240%
7 | CC1(C)S[C@@H]2[C@H](NC(=O)[C@H](N)c3ccc(O)cc3)C(=O)N2[C@H]1C(=O)O [Amoxycillin] | 68% | 105%
8 | CC1=C(C(=O)O)N2C(=O)[C@@H](NC(=O)[C@H](N)c3ccc(O)cc3)[C@H]2SC1 [Cefadroxil] | 85% | 120%
9 | CC(C)NCC(O)COc1cccc2ccccc12 (stereo not drawn) [Propranolol] | 85% | 140%
10 | CN1C(C(=O)Nc2ccccn2)=C(O)c2ccccc2S1(=O)=O [Piroxicam] | 76% | 100%
11 | CO[C@H]1/C=C/O[C@@]2(C)Oc3c(C)c(O)c4c(O)c(c(/C=N/N5CCN(C)CC5)c(O)c4c3C2=O)NC(=O)/C(C)=C\C=C\[C@H](C)[C@H](O)[C@@H](C)[C@@H](O)[C@@H](C)[C@H](OC(C)=O)[C@@H]1C [Rifampicin] | 90% | 170%
12 | Nc1nc2c(ncn2COCCO)c(=O)[nH]1 [Acyclovir] | 89% | 110%
13 | Nc1ccc(S(=O)(=O)c2ccc(N)cc2)cc1 [Dapsone] | 67% | 93%
14 | O=C(O)Cc1ccccc1Nc1c(Cl)cccc1Cl [Diclofenac] | 105% | 125%
15 | CNC(=C[N+](=O)[O-])NCCSCc1ccc(CN(C)C)o1 [Ranitidine] | 95% | 95%
16 | CO/N=C(\C(=O)N[C@@H]1C(=O)N2C(C(=O)O)=C(CSc3nc(=O)c(O)nn3C)CS[C@H]12)c1csc(N)n1 [Cefatrioxone] | 75% | 100%
17 | CC(C)(C)NCC(O)c1ccc(O)c(CO)c1 (stereo not drawn) [Salbutamol] | 98% | 75%

Row | Structure (SMILES) | % Enhancement in bioavailability [1] | % Enhancement in bioavailability [2]
18 | CCc1cc(C(N)=S)ccn1 [Ethionamide] | 120% | 110%
19 | NCC[C@H](O)C(=O)N[C@@H]1C[C@H](N)[C@@H](O[C@H]2O[C@H](CN)[C@@H](O)[C@H](O)[C@H]2O)[C@H](O)[C@H]1O[C@H]1O[C@H](CO)[C@@H](O)[C@H](N)[C@H]1O [Amikacin] | 76% | 87%
20 | CN(Cc1cc(Br)cc(Br)c1N)C1CCCCC1 [Bromhexine] |  | 35%
21 | CCOC(=O)C1=C(COCCN)NC(C)=C(C(=O)OC)C1c1ccccc1Cl (stereo not drawn) [Amlodipine] | 80% | 130%
22 | Cc1cn([C@H]2C[C@H](N=[N+]=[N-])[C@@H](CO)O2)c(=O)[nH]c1=O [Zidovudine] | 120% | 135%
23 | CS(=O)(=O)Nc1ccc([N+](=O)[O-])cc1Oc1ccccc1 [Nimesulide] | 90% | 115%
24 | COc1ccc2[nH]c([S+]([O-])Cc3ncc(C)c(OC)c3C)nc2c1 (stereo not drawn) [Omeprazole] | 72% | 87%
25 | CN(Cc1cnc2nc(N)nc(N)c2n1)c1ccc(C(=O)N[C@@H](CCC(=O)O)C(=O)O)cc1 [Methotrexate] | 95% | 140%
26 | CS(=O)(=O)c1ccc(C2=C(c3ccccc3)C(=O)OC2)cc1 [Rofecoxib] | 43% | 70%
27 | CC[C@H]1OC(=O)[C@H](C)[C@@H](O[C@H]2C[C@@](C)(OC)[C@@H](O)[C@H](C)O2)[C@H](C)[C@@H](O[C@@H]2O[C@H](C)C[C@H](N(C)C)[C@H]2O)[C@](C)(O)C[C@@H](C)C(=O)[C@H](C)[C@@H](O)[C@]1(C)O [Erythromycin] | 70% | 80%
28 | O=C(CCCN1CCC(O)(c2ccc(Cl)cc2)CC1)c1ccc(F)cc1 [Haloperidol] | 72% | 60%
29 | CC(=O)N1CCN(c2ccc(OCC3COC(Cn4ccnc4)(c4ccc(Cl)cc4Cl)O3)cc2)CC1 (stereo not drawn) [Ketoconazole] | 77% | 85%
30 | Cc1nnc2n1-c1ccc(Cl)cc1C(c1ccccc1)=NC2 [Alprazolam] | 70% | 75%
31 | CN/C(=N/CCSCc1nc[nH]c1C)NC#N [Cimetidine] | 76% | 70%
32 | CCn1cc(C(=O)O)c(=O)c2cc(F)c(N3CCNCC3)cc21 [Norfloxacin] | 45% | 55%
33 | C[C@@H]1[C@H](O)[C@@H](C)/C=C/C=C/C=C/C=C/C=C/C=C/C=C/[C@H](O[C@@H]2O[C@H](C)[C@@H](O)[C@H](N)[C@@H]2O)C[C@@H]2O[C@](O)(C[C@@H](O)C[C@@H](O)[C@H](O)CC[C@@H](O)C[C@@H](O)CC(=O)O[C@H]1C)C[C@H](O)[C@H]2C(=O)O [Amphotericin B] | 95% | 90%
34 | C=CC[C@@H]1/C=C(\C)C[C@H](C)C[C@H](OC)[C@H]2O[C@@](O)(C(=O)C(=O)N3CCCC[C@H]3C(=O)O[C@H](/C(C)=C/[C@@H]3CC[C@@H](O)[C@H](OC)C3)[C@H](C)[C@@H](O)CC1=O)[C@H](C)C[C@@H]2OC [Tacrolimus] | 90% | 110%
